Legend:
vcASADH [1] = molecular target: T1, vcASADH (Vibrio cholerae serotype O1, UniProt Q9KQG2); assay: More thorough kinetic analysis, inhibitor varied against substrate ASA; format: biochemical; settings: against the substrate ASA
T1 sequence (Q9KQG2 1-370): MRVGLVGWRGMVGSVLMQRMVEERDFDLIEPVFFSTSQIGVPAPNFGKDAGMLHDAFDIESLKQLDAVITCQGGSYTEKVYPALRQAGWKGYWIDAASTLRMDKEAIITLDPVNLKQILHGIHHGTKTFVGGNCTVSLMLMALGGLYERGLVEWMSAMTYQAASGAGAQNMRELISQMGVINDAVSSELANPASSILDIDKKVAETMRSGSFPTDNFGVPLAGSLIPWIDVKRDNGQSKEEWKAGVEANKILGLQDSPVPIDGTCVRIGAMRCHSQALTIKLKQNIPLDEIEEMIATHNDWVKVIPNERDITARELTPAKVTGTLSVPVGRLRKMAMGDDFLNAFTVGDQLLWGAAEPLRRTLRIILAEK

vcASADH [2] = molecular target: T1, vcASADH; assay: ASADH enzyme kinetic assay
spASADH = molecular target: T2, spASADH (Streptococcus pneumoniae, UniProt Q8DQ00); assay: ASADH enzyme kinetic assay; settings: for fold increase in binding affinity: relative to M11, M9: enzyme form not stated, M14: spASADH; for ligand efficiency: enzyme form not stated
T2 sequence (Q8DQ00 1-358): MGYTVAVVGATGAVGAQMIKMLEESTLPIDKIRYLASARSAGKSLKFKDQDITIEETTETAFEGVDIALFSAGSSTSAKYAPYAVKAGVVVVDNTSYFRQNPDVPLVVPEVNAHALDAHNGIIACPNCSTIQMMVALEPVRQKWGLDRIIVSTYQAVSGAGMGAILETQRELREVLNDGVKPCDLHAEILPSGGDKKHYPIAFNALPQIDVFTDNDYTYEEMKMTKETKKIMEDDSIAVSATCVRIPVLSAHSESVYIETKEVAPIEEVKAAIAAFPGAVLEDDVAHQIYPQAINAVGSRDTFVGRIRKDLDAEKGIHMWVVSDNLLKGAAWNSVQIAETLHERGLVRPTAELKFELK

For `Cn1c(=O)n(C)c2cc([N+](=O)[O-])ccc21` [Compound M14m, 4-Nitro-N,N-dimethylbenzimidazolinone], the inhibition type (vcASADH [1]) was “competitive inhibitors” and the Ki (vcASADH [2]) was 0.13 ± 0.02 mM.

With `COC(=O)c1cc(C(=O)Nc2ccc([N+](=O)[O-])cc2)cc(C(=O)OC)c1` [Compound M17m, 5-[[(4-Nitrophenyl)amino]carbonyl]-1,3-benzenedimethylcarboxylate] the Ki (vcASADH [2]) was greater than 20 mM.

`CCN1C(=O)c2ccc([N+](=O)[O-])cc2C1=O` [Compound M11e, 4-Nitro-N-ethylphthalimide] was tested, and the “affinity for spASADH (in words)” value (spASADH) was “no affinity”, the Ki (vcASADH [2]) was greater than 4 mM and the “affinity for vcASADH (in words)” value (vcASADH [2]) was “no affinity”.

With `O=C(O)c1ccc(C(=O)O)cc1` [1,4-benzenedicarboxylate, reference compound] the “affinity for spASADH (in words)” value (spASADH) was “no affinity” and the “affinity for vcASADH (in words)” value (vcASADH [2]) was “no affinity”.

For `O=c1[nH]c2ccc([N+](=O)[O-])cc2[nH]1` [Compound M14, 5-nitro-2-benzimidazolinone], the “fold increase in binding affinity” value (spASADH) was roughly 10 fold.

In the case of `O=C1NC(=O)c2cc([N+](=O)[O-])c(Cl)cc21` [Compound M9], the inhibition type (vcASADH [1]) is reported as “competitive inhibitors”, the ligand efficiency (spASADH) is reported as 0.35 kcal/mol/heavy atom and the “fold increase in binding affinity” value (spASADH) is reported as roughly 10 fold.

With `O=C(O)c1cc(C(=O)O)cc(C(=O)Nc2ccc([N+](=O)[O-])cc2)c1` [Compound M17] the ligand efficiency (spASADH) was 0.22 kcal/mol/heavy atom.

For `COC(=O)c1ccc([N+](=O)[O-])cn1` [Compound M6m, 5-Nitropyridine-2-methylcarboxylate], the Ki (vcASADH [2]) was greater than 20 mM.

`COC(=O)c1ccc(C(=O)OC)nc1` [Compound M7m, Pyridine-2,5-dimethylcarboxylate] was tested, and the Ki (vcASADH [2]) was greater than 20 mM.

— paper PMC3839116 (Bioorganic & medicinal chemistry, 2012)
